Experimental data from article PMC3322975 (The Journal of Biological Chemistry, 2012).

Molecular target: Kv7.2/7.3 M-channel (Homo sapiens, UniProt O43525+O43526)
Experiment: single-channel recording, excised inside-out patch
Type: cell-based

Sequence of Kv7.2/7.3 M-channel (O43526 whole entry): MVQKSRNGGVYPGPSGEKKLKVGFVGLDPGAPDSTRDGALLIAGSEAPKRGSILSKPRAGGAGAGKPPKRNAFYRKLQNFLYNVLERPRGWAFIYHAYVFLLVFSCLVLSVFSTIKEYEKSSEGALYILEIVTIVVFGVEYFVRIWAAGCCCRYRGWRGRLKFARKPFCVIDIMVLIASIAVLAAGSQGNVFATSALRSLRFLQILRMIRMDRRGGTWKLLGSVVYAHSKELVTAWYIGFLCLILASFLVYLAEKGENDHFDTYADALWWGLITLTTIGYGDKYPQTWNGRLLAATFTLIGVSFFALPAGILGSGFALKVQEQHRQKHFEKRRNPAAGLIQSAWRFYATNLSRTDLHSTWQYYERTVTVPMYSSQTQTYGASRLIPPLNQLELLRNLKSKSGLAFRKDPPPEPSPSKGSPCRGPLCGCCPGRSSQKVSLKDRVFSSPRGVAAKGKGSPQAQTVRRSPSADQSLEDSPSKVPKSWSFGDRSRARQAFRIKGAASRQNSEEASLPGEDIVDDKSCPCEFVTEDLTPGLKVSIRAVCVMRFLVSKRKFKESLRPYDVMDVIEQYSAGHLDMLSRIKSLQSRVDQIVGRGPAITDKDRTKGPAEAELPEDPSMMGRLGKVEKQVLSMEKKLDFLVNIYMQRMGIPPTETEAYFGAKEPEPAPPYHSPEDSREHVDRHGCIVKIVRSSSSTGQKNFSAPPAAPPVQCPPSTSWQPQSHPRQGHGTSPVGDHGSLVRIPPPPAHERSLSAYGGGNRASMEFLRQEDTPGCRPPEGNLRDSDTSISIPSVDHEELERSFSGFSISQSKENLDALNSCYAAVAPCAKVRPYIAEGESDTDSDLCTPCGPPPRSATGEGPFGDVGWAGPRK
Sequence of Kv7.2/7.3 M-channel (O43525 whole entry): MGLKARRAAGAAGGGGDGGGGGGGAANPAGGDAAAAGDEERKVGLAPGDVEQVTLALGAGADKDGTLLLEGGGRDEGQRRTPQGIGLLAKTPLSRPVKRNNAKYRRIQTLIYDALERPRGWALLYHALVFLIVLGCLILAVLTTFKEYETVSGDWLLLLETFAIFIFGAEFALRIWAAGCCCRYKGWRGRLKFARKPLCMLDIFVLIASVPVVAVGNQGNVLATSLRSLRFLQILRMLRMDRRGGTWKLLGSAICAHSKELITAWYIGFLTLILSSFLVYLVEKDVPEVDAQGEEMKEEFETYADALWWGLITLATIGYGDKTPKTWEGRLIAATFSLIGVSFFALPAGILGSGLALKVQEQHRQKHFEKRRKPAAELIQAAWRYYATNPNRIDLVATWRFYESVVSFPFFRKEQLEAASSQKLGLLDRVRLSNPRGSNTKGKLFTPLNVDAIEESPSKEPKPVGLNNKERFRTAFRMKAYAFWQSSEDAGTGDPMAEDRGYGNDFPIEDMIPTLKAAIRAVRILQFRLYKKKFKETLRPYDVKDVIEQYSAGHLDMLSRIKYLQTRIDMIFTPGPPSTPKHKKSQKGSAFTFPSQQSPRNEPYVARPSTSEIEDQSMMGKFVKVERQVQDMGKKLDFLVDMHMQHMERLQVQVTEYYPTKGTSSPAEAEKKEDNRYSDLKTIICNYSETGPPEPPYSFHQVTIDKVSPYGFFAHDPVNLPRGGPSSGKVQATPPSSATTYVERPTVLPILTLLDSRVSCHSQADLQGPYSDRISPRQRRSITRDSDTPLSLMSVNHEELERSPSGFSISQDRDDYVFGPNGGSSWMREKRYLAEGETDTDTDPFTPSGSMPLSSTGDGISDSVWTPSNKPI

Row | SMILES | EC50 [µM]
1 | CCCCCCCCc1ccc(CCC(N)(CO)COP(=O)(O)O)cc1 (stereo not drawn) [FTY720-P] | 0.5 ± 0.001
2 | CCCCCCCC/C=C\CCCCCCCC(=O)OC[C@@H](O)COP(=O)(O)O [LPA] | 1.5 ± 0.4
3 | CCCCCCCCCCCCC/C=C/[C@@H](O)[C@@H](N)COP(=O)(O)O [S-1-P] | 3.2 ± 0.6
4 | CCCCCCCC(=O)OC[C@H](COP(=O)(O)O[C@H]1[C@H](O)[C@@H](OP(=O)(O)O)[C@H](OP(=O)(O)O)[C@@H](OP(=O)(O)O)[C@H]1O)OC(=O)CCCCCCC [diC8PI(3,4,5)P3] | 1.1 ± 0.2
5 | CCCCCCCC(=O)OC[C@H](COP(=O)(O)O[C@H]1[C@H](O)[C@@H](O)[C@H](OP(=O)(O)O)[C@@H](O)[C@H]1O)OC(=O)CCCCCCC [diC8PI(4)P] | 1.7 ± 0.3
6 | CCCCCCCC(=O)OC[C@H](COP(=O)(O)O[C@@H]1[C@H](O)[C@H](O)[C@@H](OP(=O)(O)O)[C@H](OP(=O)(O)O)[C@H]1O)OC(=O)CCCCCCC [diC8PI(4,5)P2] | 1.1 ± 0.1
